Experimental data published in patent US20260258050A1, “IMMUNOMODULATOR” (HITGEN INC., priority 2023, published 2026).

Each compound was assayed against T1, Human IL-17A (Homo sapiens, UniProt Q16552) (assay: IL-17A enzyme-linked immunosorbent assay (competitive ELISA, IL-17A/IL-17Ra receptor-ligand binding)). Conditions: human IL-17A coated plate, human IL-17Ra, read-out: IC50, inhibitory activity of compounds on human IL-17A.
T1 sequence (Q16552 20-155 limits assumed): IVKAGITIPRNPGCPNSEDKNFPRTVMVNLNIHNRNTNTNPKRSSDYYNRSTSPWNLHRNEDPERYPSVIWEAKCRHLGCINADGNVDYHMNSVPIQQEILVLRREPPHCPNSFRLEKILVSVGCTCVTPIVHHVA
Set-up: purchased Sino Biological Inc. 12047-H07B
Experimental: Experimental Example 1 IL-17A Enzyme-Linked Immunosorbent Assay (ELISA)
The inhibitory effects of human IL-17A inhibitors on receptor-ligand binding were quantitatively determined by a competitive enzyme-linked immunosorbent assay (ELISA). The ELISA was performed through the following steps.
Human IL-17A (Sino Biological Inc., Cat #12047-H07B) was diluted with coating buffer (50 mM phosphate-buffered saline (PBS), pH 7.4) to give an IL-17A concentration of 0.2 μg/ml. 100 μL of the resulting solution was added to each well of a 96-well plate, and the plate was incubated at 37° C. for 30 min. In a blank group, 100 100 μL of the coating buffer was added instead of the IL-17A solution.
The plate was washed four times with 10 mM phosphate-buffered saline containing 0.05% Tween-20 (PBST, pH 7.4). 200 μL of PBST was used per well for each wash. After the final wash, the plate was tapped dry on absorbent paper.
Fresh 5% (w/v) skim milk solution was prepared before the experiment. For example, 5 g of skim milk powder (Bio-Rad, 170-6404) was completely dissolved in 100 mL of 10 mM PBST. 200 μL of the 5% (w/v) skim milk solution was added to each well, and the plate was incubated on a shaker at 25° C. for 30 min.
(S4) Preparation of 100× to-be-Tested Compound Solutions
During step (S3), the to-be-tested compound solutions were prepared, respectively. Each powdered compound was dissolved in dimethyl sulfoxide (DMSO) to reach a storage concentration of 10 mM. The to-be-tested compound solutions were then serially diluted four-fold with DMSO to obtain nine storage concentrations ranging from […].
(S6) Pre-incubation of IL-17A with to-be-tested compound solutions
89 μL of PBST and 1 μL of each of the to-be-tested compound solutions were added to each well and mixed. The plate was pre-incubated at 25° C. for 10 min. In the blank group and the control group, 1 μL of DMSO was added instead of the to-be-tested compound solutions.
(S7) Incubation with Human Interleukin-17 Receptor a (IL-17Ra)
10 μL of 16 nM human IL-17Ra (Sino Biological Inc., Cat #10895-H03H) was added, followed by incubation on a shaker at 25° C. for 30 min. The receptor solution was prepared in 10 mM PBST.
(S9) Incubation with Horseradish Peroxidase-Conjugated Antibody
100 μL of mouse anti-Fc tag horseradish peroxidase (HRP)-conjugated antibody (Sino Biological Inc., Cat #10702-MM01T-H) was added to each well. The plate was incubated on a shaker at 25° C. for 30 min. The antibody was diluted with 5% (w/v) skim milk solution at 1:5,000 (v/v).
100 μL of 3,3′,5,5′-tetramethylbenzidine (TMB) substrate solution (BD, Cat #555214) was added to each well. Substrate A and substrate B were freshly mixed at a volume ratio of 1:1 before use. The plate was incubated in the dark at 25° C. for 5-15 min.
(S12) Termination and Detection
The color reaction was terminated by addition of 2.5 M hydrochloric acid (HCl). Absorbance was measured at 450 nm using a BMG PHERStar microplate reader.
(S13) Calculation of Half-Maximal Inhibitory Concentration (IC50)
The relative percent residual activity at each compound concentration was calculated according to Equation 1. The IC50 value of each test compound was then calculated in GraphPad 6 using the equation for log(inhibitor) versus normalized response with variable slope, as shown in Equation 2.
relative percent residual activity (%)=[(absorbance of sample−absorbance of blank group)/(absorbance of control group−absorbance of blank group)]%. Equation 1: […]
The compounds prepared in the above examples were tested for IL-17A inhibitory activity according to the above method.

Row | IC50 | SMILES
1 | ≤ 50 nM | Cc1[nH]nc2c1-c1cc(F)c(NC(=O)[C@@H](NC(=O)c3ccnn3CCCF)C(C3CC3)C3CC3)cc1CN(C(C)C(F)(F)F)C(=O)C2 (mixture of isomers) [compound 249]
2 | 50 to 150 nM | Cc1[nH]nc2c1-c1cc(F)c(NC(=O)[C@@H](NC(=O)c3ccnn3C(C)C[S+](C)[O-])C(C3CC3)C3CC3)cc1COCC2 (single isomer, unassigned) [compound 43a]
3 | 50 to 150 nM | Cc1[nH]nc2c1-c1cc(F)c(NC(=O)[C@@H](NC(=O)c3ccnn3C(C)C[S+](C)[O-])C(C3CC3)C3CC3)cc1COCC2 (single isomer, unassigned) [compound 43b]
4 | 50 to 150 nM | CCn1nccc1C(=O)N[C@H](C(=O)Nc1ccc2c(c1)CCOCc1n[nH]c(C)c1-2)C(C1CC1)C1CC1 [compound 14]
5 | 50 to 150 nM | [2H]C([2H])([2H])n1nccc1C(=O)N[C@H](C(=O)Nc1cc2c(cc1F)-c1c(n[nH]c1C)CCOC2)C(C1CC1)C1CC1 [compound 18]
6 | ≤ 50 nM | Cc1nonc1C(=O)N[C@H](C(=O)Nc1cc2c(cc1F)-c1c(n[nH]c1C)CCOC2)C(C1CC1)C1CC1 [compound 20]
7 | ≤ 50 nM | CCc1nonc1C(=O)N[C@H](C(=O)Nc1cc2c(cc1F)-c1c(n[nH]c1C)CCOC2)C(C1CC1)C1CC1 [compound 21]
8 | ≤ 50 nM | Cc1[nH]nc2c1-c1cc(F)c(NC(=O)[C@@H](NC(=O)c3ccnn3[C@@H](C)CO)[C@H]3CC[C@H](C)CC3)cc1COCC2 [compound 47]
9 | ≤ 50 nM | Cc1[nH]nc2c1-c1ccc(NC(=O)[C@@H](NC(=O)c3ccnn3[C@@H](C)CO)C(C3CC3)C3CC3)cc1COCC2 [compound 51]
10 | ≤ 50 nM | Cc1[nH]nc2c1-c1cc(F)c(NC(=O)[C@@H](NC(=O)c3ccnn3[C@@H](C)CO)C(C3CC3)C3CC3)cc1COCC2 [compound 55]
11 | ≤ 50 nM | Cc1[nH]nc2c1-c1cc(F)c(NC(=O)[C@@H](NC(=O)c3ccnn3CCCO)C(C3CC3)C3CC3)cc1COCC2 [compound 56]
12 | ≤ 50 nM | Cc1[nH]nc2c1-c1cc(F)c(NC(=O)[C@@H](NC(=O)c3ccnn3CCS(C)(=O)=O)C(C3CC3)C3CC3)cc1COCC2 [compound 63]
13 | ≤ 50 nM | Cc1[nH]nc2c1-c1cc(F)c(NC(=O)[C@@H](NC(=O)c3ccnn3C3CCC3)C(C3CC3)C3CC3)cc1COCC2 [compound 72]
14 | 50 to 150 nM | Cc1[nH]nc2c1-c1cc(F)c(NC(=O)[C@@H](NC(=O)c3ccnn3[C@H]3CCOC3)C(C3CC3)C3CC3)cc1COCC2 [compound 73]
15 | 50 to 150 nM | Cc1[nH]nc2c1-c1cc(F)c(NC(=O)[C@@H](NC(=O)c3ccnn3C3CCOCC3)C(C3CC3)C3CC3)cc1COCC2 [compound 74]
16 | 50 to 150 nM | Cc1[nH]nc2c1-c1cc(F)c(NC(=O)[C@@H](NC(=O)c3ccnn3CC(C)(C)C#N)C(C3CC3)C3CC3)cc1COCC2 [compound 77]
17 | ≤ 50 nM | CO[C@@H](C)Cn1nccc1C(=O)N[C@H](C(=O)Nc1cc2c(cc1F)-c1c(n[nH]c1C)CCOC2)C(C1CC1)C1CC1 [compound 78]
18 | 50 to 150 nM | Cc1[nH]nc2c1-c1cc(F)c(NC(=O)[C@@H](NC(=O)c3ccnn3C(F)F)C(C3CC3)C3CC3)cc1COCC2 [compound 83]
19 | 50 to 150 nM | Cc1[nH]nc2c1-c1cc(F)c(NC(=O)[C@@H](NC(=O)c3ccnn3CCCN(C)C)C(C3CC3)C3CC3)cc1COCC2 [compound 85]
20 | 50 to 150 nM | Cc1[nH]nc2c1-c1cc(F)c(NC(=O)[C@@H](NC(=O)c3ccnn3CC3(C(F)(F)F)CC3)C(C3CC3)C3CC3)cc1COCC2 [compound 91]
21 | 50 to 150 nM | Cc1[nH]nc2c1-c1cc(F)c(NC(=O)[C@@H](NC(=O)c3ccnn3CCCN3CCN(C)CC3)C(C3CC3)C3CC3)cc1COCC2 [compound 93]

The next lines start with the compound.

Row | SMILES | IC50
22 | Cc1[nH]nc2c1-c1cnc(NC(=O)[C@@H](NC(=O)c3ccnn3C(C)C)C(C3CC3)C3CC3)cc1CN(C(C)C(F)(F)F)C(=O)C2 (mixture of isomers) [compound 204] | ≤ 50 nM
23 | Cc1[nH]nc2c1-c1cnc(NC(=O)[C@@H](NC(=O)c3ccnn3C(C)C)C(C3CC3)C3CC3)cc1CN(C(C)C(F)(F)F)CC2 (mixture of isomers) [compound 205] | ≤ 50 nM
24 | Cc1[nH]nc2c1-c1cnc(NC(=O)C(NC(=O)c3conc3C(C)C)C(C3CC3)C3CC3)cc1CN(C(C)C(F)(F)F)C(=O)C2 (racemic) [compound 225] | ≤ 50 nM
25 | Cc1[nH]nc2c1-c1cnc(NC(=O)[C@@H](NC(=O)c3ccnn3CCCF)C(C3CC3)C3CC3)cc1CN(C(C)C(F)(F)F)C(=O)C2 (mixture of isomers) [compound 226] | ≤ 50 nM
26 | Cc1[nH]nc2c1-c1cc(F)c(NC(=O)[C@@H](NC(=O)c3conc3C(C)C)C(C3CC3)C3CC3)cc1CN(C(C)C(F)(F)F)C(=O)C2 (mixture of isomers) [compound 248] | ≤ 50 nM
27 | Cc1[nH]nc2c1-c1cc(F)c(NC(=O)[C@@H](NC(=O)/C(F)=C\C(C)C)C(C3CC3)C3CC3)cc1CN(C(C)C(F)(F)F)C(=O)C2 (mixture of isomers) [compound 250] | ≤ 50 nM
28 | Cc1[nH]nc2c1-c1cc(F)c(NC(=O)[C@@H](NC(=O)/C(F)=C\C3CC3)C(C3CC3)C3CC3)cc1CN(C(C)C(F)(F)F)C(=O)C2 (mixture of isomers) [compound 251] | ≤ 50 nM
29 | CC(C)=C(F)C(=O)N[C@H](C(=O)Nc1cc2c(cc1F)-c1c(n[nH]c1C)CC(=O)N(C(C)C(F)(F)F)C2)C(C1CC1)C1CC1 (mixture of isomers) [compound 252] | ≤ 50 nM
30 | C=C(F)C(=O)N[C@H](C(=O)Nc1cc2c(cc1F)-c1c(n[nH]c1C)CC(=O)N(C(C)C(F)(F)F)C2)C(C1CC1)C1CC1 (mixture of isomers) [compound 253] | ≤ 50 nM
31 | Cc1[nH]nc2c1-c1cnc(NC(=O)[C@@H](NC(=O)/C(F)=C\C(C)C)C(C3CC3)C3CC3)cc1CN(C(C)C(F)(F)F)C(=O)C2 (mixture of isomers) [compound 254] | ≤ 50 nM
32 | Cc1[nH]nc2c1-c1cnc(NC(=O)[C@@H](NC(=O)/C(F)=C\C3CC3)C(C3CC3)C3CC3)cc1CN(C(C)C(F)(F)F)C(=O)C2 (mixture of isomers) [compound 255] | ≤ 50 nM
33 | CC(C)=C(F)C(=O)N[C@H](C(=O)Nc1cc2c(cn1)-c1c(n[nH]c1C)CC(=O)N(C(C)C(F)(F)F)C2)C(C1CC1)C1CC1 (mixture of isomers) [compound 256] | ≤ 50 nM
34 | C=C(F)C(=O)N[C@H](C(=O)Nc1cc2c(cn1)-c1c(n[nH]c1C)CC(=O)N(C(C)C(F)(F)F)C2)C(C1CC1)C1CC1 (mixture of isomers) [compound 257] | ≤ 50 nM
35 | CCn1nccc1C(=O)NC(C(=O)Nc1cc2c(cc1F)-c1c(n[nH]c1C)CCOC2)C1CCC(F)(F)CC1 (single isomer, unassigned) [compound 37a] | ≤ 50 nM
36 | Cc1[nH]nc2c1-c1cc(F)c(NC(=O)C(NC(=O)c3ccnn3C(C)C)C3CCC(F)(F)CC3)cc1COCC2 (single isomer, unassigned) [compound 38a] | ≤ 50 nM
37 | Cc1nonc1C(=O)N[C@H](C(=O)Nc1ccc2c(c1)COCCc1n[nH]c(C)c1-2)C(C1CC1)C1CC1 [compound 4] | ≤ 50 nM
38 | CCc1nonc1C(=O)N[C@H](C(=O)Nc1ccc2c(c1)COCCc1n[nH]c(C)c1-2)C(C1CC1)C1CC1 [compound 5] | ≤ 50 nM
39 | CCn1nccc1C(=O)N[C@H](C(=O)Nc1cc2c(cc1Cl)-c1c[nH]nc1CCOC2)C(C1CC1)C1CC1 [compound 30] | 50 to 150 nM
40 | Cn1nccc1C(=O)N[C@H](C(=O)Nc1cc2c(cc1Cl)-c1c[nH]nc1CCOC2)C(C1CC1)C1CC1 [compound 31] | 150 to 1000 nM
41 | Cc1[nH]nc2c1-c1cc(F)c(NC(=O)[C@@H](NC(=O)c3ccnn3[C@@H](C)CO)C3CCCCC3)cc1COCC2 [compound 50] | 50 to 150 nM
